Literature values, collected in paper PMC4567415 (Nuclear medicine and biology, 2015).
Values joined by “and” are separate entries in the source; they are usually repeats but may differ in a detail not shown here. Equal entries are not always repeated. Where two headings read alike, the source gives them in different places. One block for each molecule: values may come before it.

Legend:
[1] = previously observed
[2] = previously described rhodamine B ester
[3] = test system: isolated rat cardiomyocytes
[4] = rats, 60 min
[5] = Sprague-Dawley rats, 60 min p.i.

Structure (SMILES): CC/N=c1\cc2oc3cc(NCC)c(C)cc3c(-c3ccccc3C(=O)OCC)c-2cc1C [rhodamine 6G]
substrate of Pgp (Pgp): substrate of Pgp

heart uptake (Sprague-Dawley rats, 30 min): 1.51±0.04 % ID/g | liver concentration (Sprague-Dawley rats, 30 min p.i.): 0.18±0.05 % ID/g | heart uptake [5]: 1.57±0.18 % ID/g | liver concentration [5]: 0.17±0.03 % ID/g
Structure (SMILES): Fc1ccc([P+](c2ccccc2)(c2ccccc2)c2ccccc2)cc1 [BFPET]

heart-to-blood ratio (30 min p.i.): 30.0 | heart-to-liver ratio (30 min p.i.): 2.7 | liver concentration (30 min p.i.): 1.27±0.10 % ID/g | heart-to-liver ratio (120 min p.i.): 5.4 | liver concentration (120 min p.i.): 0.63±0.16 % ID/g | heart concentration [5]: 3.3±0.3 % ID/g | heart-to-liver ratio [5]: 3.7 | heart concentration (Wistar rats, 60 min p.i.): 2.06±0.83 % ID/g | heart-to-liver ratio (Wistar rats, 60 min p.i.): 5.4
Structure (SMILES): CC(C)(C)n1ncc(OCc2ccc(COCCF)cc2)c(Cl)c1=O [BMS-747158-02]

Structure (SMILES): CCN(CC)c1ccc2c(-c3ccccc3C(=O)OCCOCC[18F])c3ccc(N(CC)CC)cc3[o+]c2c1 [[^18F]2]
stability in mouse serum [1]: instability | LogD [2]: 1.90 ± 0.01 | initial activity internalized into rat cardiomyocytes ([3]; 1 min incubation): 3.9±0.8% | initial activity internalized into rat cardiomyocytes ([3]; 60 min incubation): 43.1±7.7% | Biodistribution of radioactivity, Blood [4]: 0.25 ± 0.02 % ID/g | Biodistribution of radioactivity, Bone [4]: 0.77 ± 0.04 % ID/g | Biodistribution of radioactivity, Gut [4]: 1.69 ± 0.42 % ID/g | Biodistribution of radioactivity, Heart [4]: 2.5 % ID/g and 2.51 ± 0.16 % ID/g | Biodistribution of radioactivity, Kidney [4]: 9.28 ± 0.66 % ID/g | Biodistribution of radioactivity, Liver [4]: 0.49 ± 0.04 % ID/g | Biodistribution of radioactivity, Lung [4]: 2.06 ± 0.16 % ID/g | Biodistribution of radioactivity, Muscle [4]: 0.54 ± 0.07 % ID/g | Biodistribution of radioactivity, Skin [4]: 0.36 ± 0.04 % ID/g | Biodistribution of radioactivity, Spleen [4]: 3.53 ± 0.57 % ID/g | Heart/blood tissue ratio [4]: 10.0 | Heart/bone tissue ratio [4]: 3.3 | Heart/liver tissue ratio [4]: 5.1 | Heart/lung tissue ratio [4]: 1.2
